Data from patent US7189840B2, “Oncosuppressive gene” (Novuspharma S.p.A., priority 2001, dated 2007).

Test system: A2780 cells
Test: Expression of the isolated cDNA fragment (differential display, RT-PCR) in A2780 cells treated with cytotoxic agents
Type: cell-based, human
Details: for expression of the cDNA fragment: A2780 cells after treatment with the compound
Description: Human ovary carcinoma A2780 cells were treated for 1 hour with an antitumor derivative of distamycin-A at its 50% growth-inhibiting concentration; at the end of the treatment and after 6 and 24 hours the total RNA was isolated by column extraction (SVTotal RNA, Promega Italia) and reverse-transcribed using poly-T primers as indicated in the differential-display kit (GenHunter). The fragments thus obtained were separated on denaturing polyacrylamide gel and detected by autoradiography. The bands whose intensity differed from controls were isolated and purified. One of them (fragment 1), after purification and ^32P-labeling (rediprime kit, Amersham), was used as probe in Northern Blot experiments. The RNA from the same cells was separated on agarose gel, transferred onto nylon membrane and hybridized with the probe.
Cells A2780 were treated with taxol and cisplatin (DDP) and the RNA was extracted before and 24 hours after the treatment. […] A fragment of beta-actin gene was used as internal control.

What does the source list for `N.N.[Cl][Pt][Cl]` [cisplatin]?
expression of the cDNA fragment: increased production of the same fragment; specific mRNA band by RT-PCR versus control cells (A2780 cells, RNA 24 hours after treatment, beta-actin internal control): more intense than that of control cells

Which “expression of the cDNA fragment” value does the source give for `COc1cccc2c1C(=O)c1c(O)c3c(c(O)c1C2=O)C[C@@](O)(C(=O)CO)C[C@@H]3O[C@H]1C[C@H](N)[C@H](O)[C@H](C)O1` [doxorubicin] here?
The value was “increased production of the same fragment”.

For `O=c1[nH]cc(F)c(=O)[nH]1` [fluorouracil], which “expression of the cDNA fragment” value is on record?
The value was “increased production of the same fragment”.

For `CC(=O)O[C@H]1C(=O)[C@@]2(C)[C@H]([C@H](OC(=O)c3ccccc3)[C@]3(O)C[C@H](OC(=O)[C@H](O)[C@@H](NC(=O)c4ccccc4)c4ccccc4)C(C)=C1C3(C)C)[C@]1(OC(C)=O)CO[C@@H]1C[C@@H]2O` [taxol], which “expression of the cDNA fragment” value is on record?
The value was “increased production of the same fragment”.
